Article PMC11480511 (Scientific Reports, 2024)
Converted amounts (≈) assume the structure as drawn. Like-named read-outs stand apart in the source and are kept apart here.

What was measured:
[1] = test system: HCT-116; experiment: NCI single-dose growth inhibition screen; format: cell-based; conditions: Homo sapiens; Colon Cancer HCT-116; single dose 10^−5 M
[2] = test system: E. coli ATCC 25,922; experiment: Antibacterial screening, agar cup diffusion method; format: cell-based; conditions: read-out: Minimum inhibitory concentrations (MIC, µM) E. coli ATCC 25,922
Description: Anti-bacterial activity of the recently synthesized compounds 3a-k was evaluated at AUMC (Assiut University Mycological Centre), Assiut, Egypt. Assays were done against Gram-negative strains of K. pneumoniae (ATCC 100310, E. coli (ATCC 25922), Pseudomonas aeruginosa (ATCC 27853) and the Gram-positive S. aureus (ATCC 6538) strain utilizing standard agar cup diffusion method. The isolates from the four bacterial species examined were kept in TSB (Trypticase Soya Broth, Becton and Dickinson) with 10% glycerol at -70 °C and then subcultured on TSA (Trypticase Soya Agar, Becton and Dickinson) and TSB for 24 h at 37 °C former to inoculation. Bacterial isolates were then plated on sterile petri plates with 1 × 10^8 CFU/mL (0.5 McFarland turbidity) and 20 mL of Mueller Hinton Agar media (Oxoid) was then loaded. To ensure that the microorganisms were evenly dispersed, the plates were gently rotated before being left to harden on a level surface. Four equally spaced spherical-shaped wells (10 mm diameter) were painstakingly drilled using a sterilized cork bore after media solidification. All tested compounds under test underwent two-fold serial dilutions in a sequential manner. Three replications of 100 µL of each concentration were added to a well using a micropipette. Plates were then incubated for 24-hour at 37 °C. The average of the inhibition zones was then calculated. To determine the MICs, the natural logarithm of each diluted test substance’s concentration was plotted against the average area of the related inhibition zone. Following that, a regression line was created and the intercept on the ‘ln concentration” axis was determined, and the antilogarithm was calculated to indicate the MIC value[34],[63].

[3] = test system: UACC-257; experiment: NCI single-dose growth inhibition screen; format: cell-based; conditions: Homo sapiens; Melanoma UACC-257; single dose 10^−5 M
[4] = test system: TK-10; experiment: NCI single-dose growth inhibition screen; format: cell-based; conditions: Homo sapiens; Renal Cancer TK-10; single dose 10^−5 M
[5] = test system: SN12C; experiment: NCI single-dose growth inhibition screen; format: cell-based; conditions: Homo sapiens; Renal Cancer SN12C; single dose 10^−5 M
[6] = test system: M14; experiment: NCI single-dose growth inhibition screen; format: cell-based; conditions: Homo sapiens; Melanoma M14; single dose 10^−5 M
Description: Following the guidelines established by the drug evaluation department of the National Cancer Institute (NCI), USA, all target compounds 3a–l were examined against 60 cancer cell lines at a single concentration of 10 µM.
The anti-cancer potential of the tested compounds was evaluated at the National cancer institute (NCI), USA, against 9 panels of 60 various cell lines derived from nine human tumours available usually at NCI library. The procedures for the screening were described in details in NCI website (dttp://www.dtp.nci.nih.gov.) and were done according to NCI protocols[60] . The anticancer screening was carried out at single dose of 10^−5 M, NCI, Bethesda, USA. The results obtained as growth inhibition (%).

[7] = test system: HOP-62; experiment: NCI single-dose growth inhibition screen; format: cell-based; conditions: Homo sapiens; Non-Small Cell Lung Cancer HOP-62; single dose 10^−5 M
[8] = test system: HL-60(TB); experiment: NCI single-dose growth inhibition screen; format: cell-based; conditions: Homo sapiens; Leukemia HL-60(TB); single dose 10^−5 M
[9] = test system: RXF 393; experiment: NCI single-dose growth inhibition screen; format: cell-based; conditions: Homo sapiens; Renal Cancer RXF 393; single dose 10^−5 M
[10] = test system: SF-539; experiment: NCI single-dose growth inhibition screen; format: cell-based; conditions: Homo sapiens; CNS Cancer SF-539; single dose 10^−5 M
[11] = test system: A549/ATCC; experiment: NCI single-dose growth inhibition screen; format: cell-based; conditions: Homo sapiens; Non-Small Cell Lung Cancer A549/ATCC; single dose 10^−5 M
[12] = target: T1, topoisomerase IIβ (Homo sapiens, UniProt Q02880); experiment: Topoisomerase II inhibition, human DNA topoisomerase Elisa kit; format: biochemical; conditions: ± SEM; read-out: Topoisomerase II IC50 µM ± SEM
T1 construct: purchased
T1 sequence (Q02880 whole entry): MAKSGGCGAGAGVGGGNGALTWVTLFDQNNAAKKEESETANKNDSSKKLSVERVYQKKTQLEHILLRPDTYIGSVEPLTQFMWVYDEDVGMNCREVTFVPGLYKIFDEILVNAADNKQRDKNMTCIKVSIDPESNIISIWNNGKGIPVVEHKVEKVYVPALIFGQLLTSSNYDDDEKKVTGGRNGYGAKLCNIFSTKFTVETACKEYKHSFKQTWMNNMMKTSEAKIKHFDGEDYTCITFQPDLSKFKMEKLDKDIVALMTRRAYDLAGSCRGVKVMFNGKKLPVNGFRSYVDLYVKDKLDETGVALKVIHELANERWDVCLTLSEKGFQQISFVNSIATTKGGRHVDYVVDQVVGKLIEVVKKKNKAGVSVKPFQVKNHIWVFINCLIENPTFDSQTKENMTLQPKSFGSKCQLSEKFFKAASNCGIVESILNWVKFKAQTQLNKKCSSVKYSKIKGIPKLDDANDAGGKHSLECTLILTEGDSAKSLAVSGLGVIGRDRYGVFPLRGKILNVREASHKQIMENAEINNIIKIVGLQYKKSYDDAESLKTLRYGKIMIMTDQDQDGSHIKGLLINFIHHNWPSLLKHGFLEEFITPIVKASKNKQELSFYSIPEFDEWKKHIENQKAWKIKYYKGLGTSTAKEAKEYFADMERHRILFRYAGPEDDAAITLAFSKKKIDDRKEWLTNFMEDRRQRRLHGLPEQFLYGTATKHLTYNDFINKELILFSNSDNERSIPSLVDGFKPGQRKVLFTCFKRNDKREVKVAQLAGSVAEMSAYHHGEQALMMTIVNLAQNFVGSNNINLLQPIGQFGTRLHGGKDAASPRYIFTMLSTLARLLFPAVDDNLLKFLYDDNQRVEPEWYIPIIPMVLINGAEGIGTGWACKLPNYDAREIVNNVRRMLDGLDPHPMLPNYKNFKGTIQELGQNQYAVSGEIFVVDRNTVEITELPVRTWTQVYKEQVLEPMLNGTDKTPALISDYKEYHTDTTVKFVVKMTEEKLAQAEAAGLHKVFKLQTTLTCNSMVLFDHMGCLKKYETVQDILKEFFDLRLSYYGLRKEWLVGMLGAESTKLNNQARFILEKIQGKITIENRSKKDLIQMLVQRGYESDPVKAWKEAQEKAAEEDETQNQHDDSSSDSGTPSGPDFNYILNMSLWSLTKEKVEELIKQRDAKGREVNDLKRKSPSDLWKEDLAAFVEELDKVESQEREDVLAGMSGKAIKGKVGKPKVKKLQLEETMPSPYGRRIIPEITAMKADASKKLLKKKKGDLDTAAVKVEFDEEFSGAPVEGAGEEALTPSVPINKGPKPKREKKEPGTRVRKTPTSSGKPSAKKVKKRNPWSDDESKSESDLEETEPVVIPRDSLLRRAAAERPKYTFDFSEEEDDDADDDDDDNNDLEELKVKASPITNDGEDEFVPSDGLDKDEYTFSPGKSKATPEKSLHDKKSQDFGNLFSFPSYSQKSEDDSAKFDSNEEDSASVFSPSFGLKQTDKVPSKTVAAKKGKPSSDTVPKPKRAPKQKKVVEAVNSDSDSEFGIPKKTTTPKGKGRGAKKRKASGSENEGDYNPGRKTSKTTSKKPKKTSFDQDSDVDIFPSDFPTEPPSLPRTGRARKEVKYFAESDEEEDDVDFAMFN
Description: Two folds of serial dilution was accomplished after standards and the tested compounds were dissolved in sample diluent. Horseradish peroxidase (HRP-avidin) and biotin-conjugated antibody were diluted 10 times each. Each well received 100 µL of each concentration of the standard or test chemicals, which were then added and incubated at 37 °C for 60 min. […] The microtiter plate was rinsed three times and given room to aspirate. After that, the plate was incubated at 37 °C for 60 min with 100 µL of HRP-avidin solution added to each well. After that, the plate was aspirated and cleaned 5 times. Each well received 90 µL of TMB substrate, and the plate was incubated for 30 min. at 37 °C in a light-protected environment. Finally, stop solution (50 µL) was loaded, and within 5 min, the absorbance at 450 nm was measured spectrophotometrically.
Topoisomerase enzyme assay
Topoisomerase I and II inhibitory activity […]
topoisomerase IIβ inhibitory activity utilizing the human DNA topoisomerase Elisa kit.
Standards and the tested compound were dissolved in sample diluent and 2 folds serial dilution was achieved. Biotin-conjugated antibody and avidin conjugated Horseradish Peroxidase (HRP-avidin) were diluted to 10 folds. 100 μL of each concentration of standard or test compound were added to each well. Incubate at 37 °C for 1 h. The liquid in each well was removed. 10 0 μL of Biotin-conjugated antibody solution was added to each well followed by incubation for 1 h at 37 °C. The microtiter plate was allowed to aspirate and washed 3 times. 100 μL of avidin conjugated Horseradish Peroxidase (HRP -avidin) solution was added to each well and the plate was incubated for 1 h at 37 °C. The plate was aspirated and washed 5 times. 90 μL of TMB substrate were added to each well and the plate was incubated for 30 min at 37 °C and protected from light. 50 μL stop so lution was added. The absorbance was measured spectrophotometrically within 5 min at 450 nm .

[13] = test system: SK-MEL-2; experiment: NCI single-dose growth inhibition screen; format: cell-based; conditions: Homo sapiens; Melanoma SK-MEL-2; single dose 10^−5 M
[14] = test system: UO-31; experiment: NCI single-dose growth inhibition screen; format: cell-based, human; conditions: single dose 10^−5 M; for inhibition at 10 µM: Homo sapiens, UO-31, Renal Cancer UO-31; for Growth Inhibition (%): Renal Cancer UO-31
[15] = test system: IGROV1; experiment: NCI single-dose growth inhibition screen; format: cell-based; conditions: Homo sapiens, IGROV-1; Ovarian Cancer IGROV1; single dose 10^−5 M
[16] = test system: 786-0; experiment: NCI single-dose growth inhibition screen; format: cell-based; conditions: Homo sapiens; Renal Cancer 786-0; single dose 10^−5 M
[17] = test system: MCF7; experiment: NCI single-dose growth inhibition screen; format: cell-based, human; conditions: Homo sapiens, MCF7, Breast Cancer MCF7; single dose 10^−5 M
[18] = test system: HOP-92; experiment: NCI single-dose growth inhibition screen; format: cell-based; conditions: Homo sapiens; Non-Small Cell Lung Cancer HOP-92; single dose 10^−5 M
[19] = test system: HS 578T; experiment: NCI single-dose growth inhibition screen; format: cell-based; conditions: Homo sapiens; Breast Cancer HS 578T; single dose 10^−5 M
[20] = Escherichia coli, ATCC25, Gram –ve strain

O=C(O)c1cn(C2CC2)c2cc(N3CCN(C(=O)CCCN4C(=O)CSC4=O)CC3)c(F)cc2c1=O [3 L, 1-Cyclopropyl-7-(4-(4-(2,4-dioxothiazolidin-3-yl)butanoyl)piperazin-1-yl)-6-fluoro-4-oxo-1,4-dihydroquinoline-3-carboxylic acid]
inhibition at 10 µM [1]: < 0%
MIC [2, 20]: > 20 µM
inhibition at 10 µM [3]: < 0%
inhibition at 10 µM [4]: 28.7%
inhibition at 10 µM [5]: 14.6%
inhibition at 10 µM [6]: < 0%
inhibition at 10 µM [7]: 16.8%
inhibition at 10 µM [8]: < 0%
inhibition at 10 µM [9]: 30.7%
inhibition at 10 µM [10]: 3.3%
inhibition at 10 µM [11]: 6.7%
IC50 [12]: 14.3 ± 0.78 µM
inhibition at 10 µM [13]: < 0%
inhibition at 10 µM [14]: 42%
Growth Inhibition (%) [14]: 41.0%
inhibition at 10 µM [15]: 15.3%
inhibition at 10 µM [16]: 4.8%
inhibition at 10 µM [17]: < 0%
inhibition at 10 µM [18]: 0.7%

O=C(O)c1cn(C2CC2)c2cc(N3CCN(C(=O)CCCN4C(=O)SC(=Cc5cccc([N+](=O)[O-])c5)C4=O)CC3)c(F)cc2c1=O [3d, 1-cyclopropyl-6-fluoro-7-[4-[4-[5-[(3-nitrophenyl)methylene]-2,4-dioxo-thiazolidin-3-yl]butanoyl]piperazin-1-yl]-4-oxoquinoline-3-carboxylic acid]
inhibition at 10 µM [1]: < 0%
MIC [2, 20]: 0.2 µM (≈ 0.13 µg/mL)
inhibition at 10 µM [19]: 8.2%
inhibition at 10 µM [3]: 8.1%
inhibition at 10 µM [4]: < 0%
inhibition at 10 µM [5]: 3.7%
inhibition at 10 µM [6]: 0.8%
inhibition at 10 µM [7]: 5.2%
inhibition at 10 µM [8]: < 0%
inhibition at 10 µM [9]: < 0%
inhibition at 10 µM [10]: 9.5%
inhibition at 10 µM [11]: 7.8%
inhibition at 10 µM [13]: 2.9%
inhibition at 10 µM [14]: 20.7%
inhibition at 10 µM [15]: 1.6%
inhibition at 10 µM [16]: 8.5%
inhibition at 10 µM [17]: 1.9%
inhibition at 10 µM [18]: < 0%

COc1ccc(/C=C2\SC(=O)N(CCCC(=O)N3CCN(c4cc5c(cc4F)c(=O)c(C(=O)O)cn5C4CC4)CC3)C2=O)cc1OC [3f]
inhibition at 10 µM [1]: < 0%
MIC [2, 20]: 1.94 to 2.6 µM (≈ 1.29 to 1.73 µg/mL)
MIC ([2]; Gram –ve strain): 2.23 µM (≈ 1.48 µg/mL)
inhibition at 10 µM [19]: 1.2%
inhibition at 10 µM [3]: 12.3%
inhibition at 10 µM [4]: 8.7%
inhibition at 10 µM [5]: 0.8%
inhibition at 10 µM [6]: < 0%
inhibition at 10 µM [7]: < 0%
inhibition at 10 µM [8]: 1.9%
inhibition at 10 µM [9]: < 0%
inhibition at 10 µM [10]: 4.4%
inhibition at 10 µM [11]: 1.3%
inhibition at 10 µM [13]: 2.8%
inhibition at 10 µM [14]: 14.5%
inhibition at 10 µM [15]: < 0%
inhibition at 10 µM [16]: 2.4%
inhibition at 10 µM [17]: 3.9%
inhibition at 10 µM [18]: 0.8%

O=C(O)c1cn(C2CC2)c2cc(N3CCN(C(=O)CCCN4C(=O)S/C(=C\c5ccc([N+](=O)[O-])cc5)C4=O)CC3)c(F)cc2c1=O [3k]
inhibition at 10 µM [1]: < 0%
MIC [2, 20]: 0.25 µM (≈ 0.162 µg/mL)
inhibition at 10 µM [3]: < 0%
inhibition at 10 µM [4]: 33.5%
inhibition at 10 µM [5]: 8.7%
inhibition at 10 µM [6]: < 0%
inhibition at 10 µM [7]: 19.7%
inhibition at 10 µM [8]: < 0%
inhibition at 10 µM [9]: 47.9%
inhibition at 10 µM [10]: 6%
inhibition at 10 µM [11]: 5.5%
IC50 [12]: 18.7 ± 1.02 µM
inhibition at 10 µM [13]: < 0%
inhibition at 10 µM [14]: 42%
Growth Inhibition (%) [14]: 41.1%
inhibition at 10 µM [15]: 15.9%
inhibition at 10 µM [16]: 14.1%
inhibition at 10 µM [17]: < 0%
inhibition at 10 µM [18]: 0.2%

COc1cc(/C=C2\SC(=O)N(CCCC(=O)N3CCN(c4cc5c(cc4F)c(=O)c(C(=O)O)cn5C4CC4)CC3)C2=O)cc(OC)c1OC [3 g]
inhibition at 10 µM [1]: < 0%
MIC [2, 20]: 0.25 µM (≈ 0.174 µg/mL)
inhibition at 10 µM [19]: 3.2%
inhibition at 10 µM [3]: 6.7%
inhibition at 10 µM [4]: < 0%
inhibition at 10 µM [5]: 0.6%
inhibition at 10 µM [6]: 0.5%
inhibition at 10 µM [7]: < 0%
inhibition at 10 µM [8]: < 0%
inhibition at 10 µM [9]: < 0%
inhibition at 10 µM [10]: 0.5%
inhibition at 10 µM [11]: 3.5%
inhibition at 10 µM [13]: < 0%
inhibition at 10 µM [14]: 1.5%
inhibition at 10 µM [15]: < 0%
inhibition at 10 µM [16]: < 0%
inhibition at 10 µM [17]: 3.6%
inhibition at 10 µM [18]: < 0%

Cc1ccc(/C=C2\SC(=O)N(CCCC(=O)N3CCN(c4cc5c(cc4F)c(=O)c(C(=O)O)cn5C4CC4)CC3)C2=O)cc1 [3c]
inhibition at 10 µM [1]: < 0%
MIC [2, 20]: 0.48 µM (≈ 0.297 µg/mL)
inhibition at 10 µM [19]: < 0%
inhibition at 10 µM [3]: < 0%
inhibition at 10 µM [4]: < 0%
inhibition at 10 µM [5]: < 0%
inhibition at 10 µM [6]: < 0%
inhibition at 10 µM [7]: < 0%
inhibition at 10 µM [8]: 6.2%
inhibition at 10 µM [9]: 7.2%
inhibition at 10 µM [10]: 0.9%
inhibition at 10 µM [11]: < 0%
inhibition at 10 µM [13]: < 0%
inhibition at 10 µM [14]: 16.5%
inhibition at 10 µM [15]: 3.2%
inhibition at 10 µM [16]: 0.9%
inhibition at 10 µM [17]: < 0%
inhibition at 10 µM [18]: < 0%

COc1ccc(C=C2SC(=O)N(CCCC(=O)N3CCN(c4cc5c(cc4F)c(=O)c(C(=O)O)cn5C4CC4)CC3)C2=O)cc1 [3e, 1-cyclopropyl-6-fluoro-7-[4-[4-[5-[(4-methoxyphenyl)methylene]-2,4-dioxo-thiazolidin-3-yl]butanoyl]piperazin-1-yl]-4-oxoquinoline-3-carboxylic acid]
inhibition at 10 µM [1]: 0%
MIC [2, 20]: 1.94 to 2.6 µM (≈ 1.23 to 1.65 µg/mL)
MIC ([2]; Gram –ve strain): 1.94 µM (≈ 1.23 µg/mL)
inhibition at 10 µM [19]: 2.4%
inhibition at 10 µM [3]: 19.7%
inhibition at 10 µM [4]: 11.3%
inhibition at 10 µM [5]: < 0%
inhibition at 10 µM [6]: < 0%
inhibition at 10 µM [7]: < 0%
inhibition at 10 µM [8]: < 0%
inhibition at 10 µM [9]: < 0%
inhibition at 10 µM [10]: 6.5%
inhibition at 10 µM [11]: 7.9%
inhibition at 10 µM [13]: 6.5%
inhibition at 10 µM [14]: 18.5%
inhibition at 10 µM [15]: < 0%
inhibition at 10 µM [16]: 18.7%
inhibition at 10 µM [17]: < 0%
inhibition at 10 µM [18]: 8.3%

O=C(O)c1cn(C2CC2)c2cc(N3CCN(C(=O)CCCN4C(=O)S/C(=C\c5ccc(Cl)cc5)C4=O)CC3)c(F)cc2c1=O [3 h]
inhibition at 10 µM [1]: 1.8%
MIC [2, 20]: 0.04 µM (≈ 0.0256 µg/mL)
inhibition at 10 µM [19]: < 0%
inhibition at 10 µM [3]: 5.1%
inhibition at 10 µM [4]: 1.1%
inhibition at 10 µM [5]: 0.4%
inhibition at 10 µM [6]: 0.7%
inhibition at 10 µM [7]: 2.9%
inhibition at 10 µM [8]: < 0%
inhibition at 10 µM [9]: < 0%
inhibition at 10 µM [10]: 1.2%
inhibition at 10 µM [11]: 3.4%
inhibition at 10 µM [13]: 7.3%
inhibition at 10 µM [14]: 28%
inhibition at 10 µM [15]: < 0%
inhibition at 10 µM [16]: 11.3%
inhibition at 10 µM [17]: < 0%
inhibition at 10 µM [18]: 9.7%
